Test results as given in patent US8703483B2, “Reagents and methods for using human embryonic stem cells to evaluate toxicity of pharmaceutical compounds and other chemicals” (Wisconsin Alumni Research Foundation, priority 2006, dated 2014).

Test system: human embryonic stem cells
Assay: Metabolite profiling (LC/ESI-TOF mass spectrometry) of extracellular media of hESCs treated with alcohol
Type: cell-based
Conditions: ETOH 0.3
From the text: Binned masses were annotated in silico by querying the neutral masses in several different databases. These databases included Metlin, Biological Magnetic Resonance Data Bank (BMRB), NIST Chemistry WebBook, and the Human Metabolome Database. A mass was considered identified when its neutral mass was within 10 ppm of a known compound annotated in one of the databases listed above.

## CCO [ETOH]
4 D
  Fold: Unknown, mass 268.2487, RT 42.3656: −1.517 fold
  Fold: Unknown, mass 284.9798, RT 5.69776: −1.2223 fold
  Fold: Unknown, mass 286.1519, RT 14.88092: −1.862 fold
  Fold: Unknown, mass 293.1952, RT 66.86661: −2.154 fold
  Fold: Unknown, mass 293.9773, RT 4.014175: −2.267 fold
  Fold: Unknown, mass 294.1535, RT 20.67831: −1.422 fold
  Fold: Unknown, mass 295.1521, RT 8.967061: 1.467 fold
  Fold: Unknown, mass 301.1345, RT 7.719471: 2.678 fold
  Fold: Unknown, mass 315.6732, RT 26.51229: −2.865 fold
  Fold: Unknown, mass 322.1166, RT 23.90107: −2.4215 fold
  Fold: Unknown, mass 332.1367, RT 20.72194: −2.077 fold
  Fold: Unknown, mass 340.9252, RT 5.033976: 2.625 fold
  Fold: Unknown, mass 353.2765, RT 3.85935: 4.904 fold
  Fold: Unknown, mass 365.1606, RT 20.16372: −1.925 fold
  Fold: Unknown, mass 375.1886, RT 26.07722: −4.751 fold
  Fold: Unknown, mass 375.1898, RT 11.47109: 2.132 fold
  Fold: Unknown, mass 383.1721, RT 15.20829: 3.377 fold
  Fold: Unknown, mass 387.0812, RT 19.97914: −1.699 fold
  Fold: Unknown, mass 388.2349, RT 46.346: −1.532 fold
  Fold: Unknown, mass 393.1886, RT 19.69092: −2.059 fold
  Fold: Unknown, mass 396.1687, RT 6.259963: 2.422 fold
  Fold: Unknown, mass 403.1984, RT 17.27421: −2.303 fold
  Fold: Unknown, mass 417.2338, RT 33.09057: −1.78 fold
  Fold: Unknown, mass 417.2386, RT 21.14975: −1.573 fold
  Fold: Unknown, mass 420.0513, RT 13.35295: −1.902 fold
  Fold: Unknown, mass 421.2201, RT 27.46219: −2.273 fold
  Fold: Unknown, mass 429.2533, RT 18.03482: −2.201 fold
  Fold: Unknown, mass 443.2339, RT 30.87201: 2.171 fold
  Fold: Unknown, mass 443.3216, RT 67.0705: 1.688 fold
4 D, retention time 3.646902
  Fold, Unknown metabolite, Mass 994.0917: 1.605
4 D, retention time 3.680188
  Fold, Unknown metabolite, Mass 980.075: 1.481
4 D, retention time 3.705141
  Fold, Unknown metabolite, Mass 1008.072: 1.416
4 D, retention time 4.613879
  Fold, Unknown metabolite, Mass 820.8181: −1.571
4 D, retention time 4.936704
  Fold, Unknown metabolite, Mass 611.8727: 2.01
4 D, retention time 5.177162
  Fold, Unknown metabolite, Mass 1038.786: 1.588
4 D, retention time 5.399211
  Fold, Unknown metabolite, Mass 921.0025: 1.945
4 D, retention time 5.742094
  Fold, Unknown metabolite, Mass 555.8505: −1.3396
4 D, retention time 5.8905
  Fold, Unknown metabolite, Mass 1040.323: −1.479
4 D, retention time 5.891069
  Fold, Unknown metabolite, Mass 509.6704: 1.468
4 D, retention time 5.903169
  Fold, metabolite Ethanesulfonic acid, Mass 579.2519: −2.112
4 D, retention time 5.903429
  Fold, Unknown metabolite, Mass 646.7084: 2.946
4 D, retention time 5.918027
  Fold, Unknown metabolite, Mass 732.007: 1.761
4 D, retention time 8.787827
  Fold, Unknown metabolite, Mass 658.2544: −3.21
4 D, retention time 13.78553
  Fold, Unknown metabolite, Mass 502.2258: 1.866
4 D, retention time 14.9927
  Fold, Unknown metabolite, Mass 566.2265: 1.624
4 D, retention time 15.78741
  Fold, Unknown metabolite, Mass 555.2406: 2.471
4 D, retention time 16.90923
  Fold, Unknown metabolite, Mass 577.2825: −8.917
4 D, retention time 18.36887
  Fold, Unknown metabolite, Mass 505.2616: 2.009
4 D, retention time 21.72729
  Fold, Unknown metabolite, Mass 489.2127: 2.372
4 D, retention time 22.95657
  Fold, Unknown metabolite, Mass 462.2217: 1.936
4 D, retention time 23.87065
  Fold, metabolite L-Oleandrosyl-oleandolide, Mass 530.314: 2.212
4 D, retention time 24.7039
  Fold, Unknown metabolite, Mass 574.3397: 1.524
4 D, retention time 25.14927
  Fold, metabolite L-Urobilinogen, Mass 596.3543: 1.545
4 D, retention time 26.7452
  Fold, Unknown metabolite, Mass 661.3846: 1.547
4 D, retention time 29.86415
  Fold, Unknown metabolite, Mass 447.2509: −1.858
4 D, retention time 30.28867
  Fold, Unknown metabolite, Mass 478.2761: 1.51
4 D, retention time 30.37291
  Fold, metabolite glucuronide, Mass 471.1928: 2.726
4 D, retention time 30.45343
  Fold, Unknown metabolite, Mass 449.2653: −2.414
4 D, retention time 30.72707
  Fold, Unknown metabolite, Mass 471.7804: −3.441
4 D, retention time 31.22083
  Fold, Unknown metabolite, Mass 510.8202: 2.502
4 D, retention time 31.97996
  Fold, Unknown metabolite, Mass 559.8329: −2.566
4 D, retention time 32.08734
  Fold, Unknown metabolite, Mass 635.4065: 1.395
4 D, retention time 32.50661
  Fold, Unknown metabolite, Mass 531.2876: 2.361
4 D, retention time 32.67372
  Fold, Unknown metabolite, Mass 603.3535: −2.94
4 D, retention time 33.51823
  Fold, Unknown metabolite, Mass 460.9391: −3.602
4 D, retention time 33.68866
  Fold, Unknown metabolite, Mass 619.3409: 2.126
4 D, retention time 34.60124
  Fold, Unknown metabolite, Mass 796.9917: 1.689
4 D, retention time 35.028
  Fold, Unknown metabolite, Mass 751.4193: 1.845
4 D, retention time 35.58454
  Fold, Unknown metabolite, Mass 531.3191: −3.0409
4 D, retention time 40.84822
  Fold, metabolite Neu5Acalpha2-3Galbeta1-4Glcbeta-Sp, Mass 702.2497: −2.216
4 D, retention time 46.57666
  Fold, Unknown metabolite, Mass 518.3914: 2.289
4 D, retention time 47.76987
  Fold, Unknown metabolite, Mass 731.0954: −3.25
4 D, retention time 47.90467
  Fold, Unknown metabolite, Mass 576.096: 1.558
4 D, retention time 51.58546
  Fold, Unknown metabolite, Mass 444.2237: 2.03
4 D, retention time 51.6158
  Fold, Unknown metabolite, Mass 468.2002: 1.92
4 D, retention time 51.73057
  Fold, Unknown metabolite, Mass 526.2773: 2.715
4 D, retention time 54.8719
  Fold, Unknown metabolite, Mass 446.0431: 1.934
4 D, retention time 66.31491
  Fold, Unknown metabolite, Mass 531.3736: 2.874
4 D, retention time 66.73744
  Fold, Unknown metabolite, Mass 487.3472: 2.878
4 D, retention time 71.36012
  Fold, Unknown metabolite, Mass 528.3631: 2.361
4 D, retention time 88.02533
  Fold, Unknown metabolite, Mass 556.3971: −2.384
24 H
  Fold: 1,3-Dimethyl-8-isoquinolinol, mass 173.084, RT 20.23014: −1.44 fold
  Fold: 3,4-Dihydroxybutyric acid, mass 129.0452, RT 16.73904: 1.796 fold
  Fold: 3-Methoxytyramine / Phenylephrine, mass 167.0941, RT 23.6763: −2.83 fold
